In US20060046976A1, “Method for increasing the bone mineral density and bone micro-architecture or connectivity of a mammal using N-acylated glucosamines” (priority 2004, published 2006):

Legend:
SCW-arthritis rats = assay: BMD by DXA of femurs and tibias in SCW-arthritis rats; assay type: in vivo, Lewis type rats; conditions: 6 weeks
Excerpt: In this experiment performed and described herein, there were four groups of Lewis type rats, consisting of eight (8) animals in each group. Lewis type rats had experimental arthritis induced by a single intra-peritoneal injection of streptococcal cell wall antigen (SCW). This type of arthritis has an acute and chronic phase and affects mostly the distal joints in the hind limbs of the animals, and, less so, the knees and hips. Groups 1-3, inclusive, had inflammatory arthritis induced. The compound used in the experiment was used to supplement normal rat chow feed on a daily basis. Feed and water were unrestricted. Group I feed was supplemented with the compound shown in formula II, abbreviated as GlcNBu, at a dose of 200mg/kg/day. […] All the dissected femurs and tibiae were scanned with dual energy x-ray absorptiometry (DXA) were measured at the distal femur, and proximal tibia using a user defined region of interest (ROI). • Micro-CT imaging protocol. […] The reconstructed tibia images were analyzed with MicroView 2.0 software (GE Healthcare, London, ON) in two and three dimensions. • Three-dimensional trabecular bone measurements. […] On 3D analysis, the tissue volume (3D-TV, mm3) and trabecular bone volume (3D-BV, mm3) were measured directly, and the fractional trabecular bone volume (3D-BV/TV, %) was calculated. […]

[1] = test system: non-ovariectomised animals; assay: BMD by DXA in non-ovariectomised rats fed GlcNBu; assay type: in vivo, rat; conditions: 200 mg GlcNBu daily, not statistically significant, data not shown
Method: Sixteen ovariectomised rats (Charles River Laboratories), approximately 200 g in weight, were randomized into two groups. The control group received 200 mg of glucose, by mouth as single daily doses and the GlcNBu-treated group received 200 mg of GlcNBu by mouth, as single daily doses, for a total period of six (6) months. A similar group of non-ovariectomised animals was fed with GlcNBu or glucose at the same doses. The feeding of the compounds was done in small amounts of peanut butter which was very acceptable to the rats, which were allowed free access to water and rat chow. The animals had the BMDs of the femurs (total or global BMD) and the lumbar spines were estimated at baseline and then at, approximately 2, 4 and 6 months. Consistent position of the femurs was assured with a pre-determined grid. A Hologic 4500 DXA machine, with small animal software, was employed for the study. The animals were lightly anesthetized for each measurement.

SMILES: CCCC(=O)N[C@H]1C(O)O[C@H](CO)[C@@H](O)[C@@H]1O (stereo partly drawn) [GlcNBu, N-butyryl-D-glucosamine]
- BMD femurs and tibias, Group I (GlcNBu 200 mg) vs Group 3 (GlcNBu 20 mg) (SCW-arthritis rats; 200 mg/kg/day in feed): much greater
- BMD differences between Group 1 (GlcNBu 200 mg) and other Groups (SCW-arthritis rats; 200 mg/kg/day): Statistical significance of the differences was achieved
- BMD at the sites measured vs glucose-fed animals [1]: higher trends in the BMD
